# According to PubChem BioAssay (NCI):
#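 Cultured in 96-well plates, cells were exposed to test compound for 48 hours across five concentrations. TGI: total growth inhibition.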
# Assays:
# Assay in all cases: NCI tumour cell line growth inhibition, 48 h
# UO-31 renal = system: UO-31 renal
# CAKI-1 renal = system: CAKI-1 renal
# RPMI-8226 leukemia = system: RPMI-8226 leukemia
# SK-MEL-28 melanoma = system: SK-MEL-28 melanoma
# EKVX NSCLC = system: EKVX NSCLC
# RXF 393 renal = system: RXF 393 renal
# MOLT-4 leukemia = system: MOLT-4 leukemia
# HCT-15 colon = system: HCT-15 colon
# HL-60(TB) leukemia = system: HL-60(TB) leukemia
# T-47D breast = system: T-47D breast
Structure (SMILES),TGI (UO-31 renal),TGI (CAKI-1 renal),TGI (RPMI-8226 leukemia),TGI (SK-MEL-28 melanoma),TGI (EKVX NSCLC),TGI (RXF 393 renal),TGI (MOLT-4 leukemia),TGI (HCT-15 colon),TGI (HL-60(TB) leukemia),TGI (T-47D breast)
COc1cc2c(cc1OC)C1(c3ccc(Cl)cc3)ON=C(c3ccccc3)N1CS2 (stereo not given),> 100 µM,> 100 µM,> 100 µM,> 100 µM,> 100 µM,> 100 µM,> 100 µM,> 100 µM,> 100 µM,–
O=C(Cc1ccccc1)NN1C(=O)C(Cl)C1c1ccccc1O (stereo not given),36.8 µM,> 100 µM,> 100 µM,> 100 µM,26.7 µM,> 100 µM,> 100 µM,> 100 µM,18.8 µM,–
CC1(O)OC(=O)C2=C1CCC1C2CCC2(C)C(O)CCC12 (stereo not given),> 100 µM,> 100 µM,> 100 µM,> 100 µM,> 100 µM,–,–,> 100 µM,> 100 µM,> 100 µM
Brc1ccc(-c2cn3ccncc3n2)cc1,> 100 µM,> 100 µM,> 100 µM,> 100 µM,> 100 µM,> 100 µM,> 100 µM,> 100 µM,–,> 100 µM
C/C(=C/CC[C@]1(CO)CC[C@]2(CO)[C@H](CC[C@@H]3[C@@]4(C)CC[C@H](OC5OCC(O)C(O)C5OC5OC(CO)C(O)C(O)C5O)C(C)(C)[C@@H]4CC[C@]32C)[C@H]1O)CO (stereo not given in full),> 100 µM,> 100 µM,> 100 µM,> 100 µM,> 100 µM,> 100 µM,> 100 µM,–,> 100 µM,> 100 µM
CC(C)CN=C(N)N=C(N)N,> 100 µM,–,> 100 µM,> 100 µM,> 100 µM,> 100 µM,> 100 µM,> 100 µM,> 100 µM,> 100 µM
CCOP(=O)(OCC)C(C)(CC)NC (stereo not given),> 100 µM,> 100 µM,–,> 100 µM,> 100 µM,> 100 µM,> 100 µM,> 100 µM,> 100 µM,> 100 µM
O=C1C[C@@H](c2ccccc2)O[C@@H](c2ccccc2)C1,> 100 µM,> 100 µM,> 100 µM,–,> 100 µM,> 100 µM,> 100 µM,> 100 µM,–,> 100 µM
O=C(O)CNC(=O)c1c2ccccc2nc2ccccc12,> 100 µM,> 100 µM,> 100 µM,> 100 µM,> 100 µM,–,> 100 µM,> 100 µM,–,–
Cc1ccc2nc(NC(=O)/C(Cc3nc4ccc(Cl)cc4[nH]c3=O)=N\NC(C)(C)C)sc2c1,> 100 µM,89.7 µM,> 100 µM,> 100 µM,–,> 100 µM,> 100 µM,> 100 µM,> 100 µM,> 100 µM
CCN(CC)Cc1sc2nc3ccccc3n2c1-c1ccc(OC)cc1,> 100 µM,> 100 µM,33.1 µM,> 100 µM,75.1 µM,97 µM,> 100 µM,> 100 µM,> 100 µM,–
CC(C)(C)c1cc(C2COC(c3cc(C(C)(C)C)c(O)c(C(C)(C)C)c3)CO2)cc(C(C)(C)C)c1O (stereo not given),> 100 µM,> 100 µM,> 100 µM,> 100 µM,> 100 µM,> 100 µM,–,> 100 µM,–,> 100 µM
Cc1ccc(CC(C)N)cc1 (stereo not given),> 100 µM,> 100 µM,> 100 µM,> 100 µM,> 100 µM,> 100 µM,> 100 µM,> 100 µM,> 100 µM,–
c1ccc(CSCCc2ccncc2)cc1,> 100 µM,–,> 100 µM,> 100 µM,> 100 µM,> 100 µM,> 100 µM,> 100 µM,89.6 µM,> 100 µM
COc1ccc2c(c1)CCN1CCc3cc(OC)c(OC)cc3CC21 (stereo not given),> 100 µM,> 100 µM,> 100 µM,> 100 µM,> 10 µM,> 100 µM,> 100 µM,> 100 µM,–,> 100 µM
O=c1onc2c3ccccc3ncn12,> 100 µM,> 100 µM,> 100 µM,> 100 µM,> 100 µM,> 100 µM,> 100 µM,> 100 µM,–,> 100 µM
Cc1cc(NCCCCCCCNc2cc(C)nc3cc([N+](=O)[O-])ccc23)c2ccc([N+](=O)[O-])cc2n1,29 µM,65.2 µM,–,10.1 µM,35.9 µM,22.9 µM,4.23 µM,9.8 µM,–,18.5 µM
Cc1n[nH]c(=O)n1/N=C/c1ccc([N+](=O)[O-])o1,30.2 µM,19.9 µM,> 58.3 µM,28.3 µM,34.3 µM,17.7 µM,> 100 µM,26.2 µM,–,40.6 µM
CC(=O)OCC1OC(n2c(=O)[nH]c(=O)c3sccc32)C(Br)C1OC(C)=O (stereo not given),> 100 µM,> 100 µM,> 100 µM,> 100 µM,> 100 µM,> 100 µM,> 100 µM,> 100 µM,> 100 µM,–
CSCCC(NC(=O)Cc1ccc(C(=O)c2ccccc2)cc1)C(=O)O (stereo not given),> 100 µM,> 100 µM,–,> 100 µM,> 100 µM,> 100 µM,> 100 µM,> 100 µM,> 100 µM,> 100 µM
O=C(Nc1cccc(F)c1)c1cc2ccc(O)cc2oc1=Nc1ccccc1F,14.2 µM,15 µM,> 100 µM,18 µM,6.17 µM,–,24.7 µM,13.8 µM,7.48 µM,12.1 µM
O[C@H]1[C@H](O)[C@@H](O)[C@@]2(O)C[C@@H](O)[C@@H]1N2,> 100 µM,–,–,> 100 µM,> 100 µM,> 100 µM,> 100 µM,> 100 µM,> 100 µM,> 100 µM
COc1ccc(C(=O)c2[nH]c(Nc3ccc(Cl)cc3)c(C(=S)Nc3ccccc3)c2N)cc1,> 100 µM,> 100 µM,–,87 µM,> 100 µM,> 100 µM,> 100 µM,> 100 µM,> 100 µM,> 100 µM
